From article PMC13114161 (Antibiotics, 2026)
Like-named read-outs stand apart in the source and are kept apart here.

Columns and labels:
P. aeruginosa ATCC 27853 [1] = assay: Ethidium bromide efflux inhibition; type: cell-based, Pseudomonas aeruginosa
Text: In the first assay, the efflux of ethidium bromide (EtBr) by P. aeruginosa cells is studied in the presence of different concentrations of TXA11114.

in vitro = type: cell-based; conditions: human
Method: The cytotoxicity of TXA11114 was evaluated in HEK293T and A549 cell lines using the CellTiter-Glo™ assay (Promega, Madison, WI, USA). HEK293T cells (human embryonic kidney cells transformed with sheared adenovirus 5 DNA and expressing SV40 large T antigen) and A549 cells (human alveolar basal epithelial adenocarcinoma cell line; hypotriploid with a modal chromosome number of 66) were obtained from Sai Life Sciences Ltd. (Hyderabad, India). These cell lines are well-characterized and consistent with commonly used reference lines (e.g., A549, ATCC CCL-185).
TXA11114 was tested in a dose–response format with a top concentration of 20 µM using 2-fold serial dilutions in triplicate. Doxorubicin and staurosporine were included as reference controls. Cells (1200 cells/well in 27 µL complete medium) were seeded into 384-well plates and incubated overnight at 37 °C with 5% CO2. The following day, cells were treated with 3 µL of 10× serially diluted compounds. After a 24 h incubation, CellTiter-Glo reagent was added, and plates were gently shaken for 15–20 min at room temperature. Luminescence was measured using an EnVision multimode plate reader (PerkinElmer, Thane, India).

Plasma stability = type: in vitro ADME, human
Method: Plasma stability was assessed by incubating the compound in plasma at 37 °C and monitoring parent compound disappearance over time by LC-MS/MS. Half-life values were calculated assuming first-order kinetics.

P. aeruginosa ATCC 27853 [2] = assay: Nitrocefin assay for outer-membrane permeabilization; type: cell-based, Pseudomonas aeruginosa
Text: The significant toxicity of previously identified EPIs has prevented their clinical use. So, understanding the TXA11114 mechanism of action (MoA) was of paramount importance to eliminate off-target effects that may arise from other activities besides efflux pump inhibition. Historically EPIs are known to augment the action of traditional antibiotics by compromising the integrity of bacterial membranes, allowing increased drug accumulation. One of the major concerns of earlier EPIs was their ability to disrupt bacterial membranes. Two approaches were taken to investigate if membrane disruption played a role in the potentiation of antibiotics seen in Table 2 by TXA11114: (1) a flow cytometry-based propidium iodide (PI) assay to monitor inner-membrane permeabilization, and (2) a nitrocefin (NCF) assay to monitor outer-membrane permeabilization. NCF is a chromogenic cephalosporin that changes from yellow to red when the amide bond in the β-lactam ring is hydrolyzed by a β-lactamase. The rate of hydrolysis in intact cells is slow, as it is limited by the rate of diffusion of […]. […] Cells with intact membranes exclude PI and remain non-fluorescent, while cells with compromised membrane integrity allow PI to enter and bind to DNA, resulting in fluorescence. […]

P. aeruginosa ATCC 27853 [3] = assay: Membrane polarization assay DiOC2(3); type: cell-based, Pseudomonas aeruginosa
Method: RND efflux pumps require an intact proton motive force across the inner membrane to mediate drug efflux. Accordingly, collapse of the membrane potential could indirectly disable efflux activity and result in apparent antibiotic potentiation. To determine whether TXA11114 dissipates the membrane potential of P. aeruginosa, membrane polarization was assessed using the fluorescent probe 3,3′-diethyloxacarbocyanine iodide (DiOC2(3)). DiOC2(3) accumulates in cells with polarized membranes, undergoing a concentration-dependent shift from green to red fluorescence due to dye stacking; membrane depolarization prevents this shift. […] CCCP and azithromycin were included as positive and negative controls, respectively. […] This discrepancy likely reflects a methodological limitation of the DiOC2(3) assay in Gram-negative bacteria. Specifically, EDTA treatment is required to transiently permeabilize the outer membrane to permit DiOC2(3) access to the cytoplasmic membrane (see Methods). While necessary for probe uptake, EDTA can sensitize cells to secondary perturbations and may exaggerate subtle fluorescence changes at supraphysiological compound concentrations.
P. aeruginosa membrane polarization assays were conducted as described previously using strain ATCC 27853. Briefly, mid-exponential phase (OD600 of 0.5) P. aeruginosa was pelleted by centrifugation at 3000× g for 10 min at room temperature. Cells were then resuspended in 1× PBS, treated with 10 mM EDTA for 5 min and then centrifuged at 300× g for 10 min to remove EDTA. EDTA-treated cells were pelleted and resuspended to an OD600 of 1.0 in assay resuspension buffer. A 6 mM DiOC2(3) stock in DMSO was added to cells for a final concentration of 30 µM. DiOC2(3)-loaded cells were then added to a 96-well black bottom microplate for a final volume of 200 µL. […] After 15 min incubation at 37 °C in dark, DiOC2(3) fluorescence was recorded using the SpectraMax iD5 spectrophotometer (Molecular Devices, San Jose, CA, USA) using 450 nm excitation. Red fluorescence intensity was recorded at 670 nm emission.

P. aeruginosa ATCC 27853 [4] = assay: Time-kill study; type: cell-based, Pseudomonas aeruginosa; conditions: levofloxacin 1X-MIC + TXA11114
Method: (§1) Time-kill studies were carried out as described previously with the following changes.

P. aeruginosa AR-0232 = assay: Time-kill study; type: cell-based, Pseudomonas aeruginosa; conditions: levofloxacin 1X-MIC + TXA11114, by 24 h
Method: as §1

Microsomal stability = type: in vitro ADME, human; conditions: pH 7.4
Method: The metabolic stability of TXA11114 was evaluated in liver microsomes from human (HLM), dog (DLM), rat (RLM), and mouse (MLM). Test compound disappearance over time was monitored by LC-MS/MS. Verapamil (HLM and RLM) and imipramine (DLM and MLM) were used as positive controls. […] Aliquots (70 µL) were transferred to 96-well reaction plates and pre-incubated at 37 °C for 5 min. Reactions were initiated by adding 30 µL NADPH (final concentration 1 mM). Control incubations lacking NADPH were included to assess non-enzymatic degradation. Reactions were terminated at 0, 5, 15, 30, and 60 min by the addition of 100 µL ice-cold acetonitrile containing glipizide as an internal standard.

Which results are given for `NCC(F)C[C@@H](N)CNC(=O)c1cc2ccc(-c3ccc(F)cc3)cc2[nH]1` (stereo partly drawn) [TXA11114, N-((2R)-2,5-diamino-4-fluoropentyl)-6-(4-fluorophenyl)-1H-indole-2-carboxamide]?
Minimal potentiation concentration (MPC) (P. aeruginosa ATCC 27853 [1]; elevated inoculum of EtBr assay (approximately 1000-fold greater)): 12.5 µg/mL; EtBr efflux blockade (fluorescence) (P. aeruginosa ATCC 27853 [1]; increasing TXA11114 concentration): fluorescence intensity increased proportionally; IC50 at 24 h (in vitro): > 20 µM; half-life (Plasma stability; across four species (human, dog, rat, and mouse), read-out: Plasma stability half-life): > 2 h; half-life (Plasma stability; human, read-out: Plasma stability t1/2): > 2 h; Concentrations at which impact on NCF hydrolysis is minimal (P. aeruginosa ATCC 27853 [2]): below 25 μg/mL; Concentrations with modest increase in apparent depolarization (P. aeruginosa ATCC 27853 [3]): > 10 µg/mL; Membrane depolarization (P. aeruginosa ATCC 27853 [3]; 0.01–20 µM): did not induce significant membrane depolarization; Reduction in time-kill with levofloxacin (P. aeruginosa ATCC 27853 [4]): more modest but reproducible reductions; Reduction in time-kill with levofloxacin (P. aeruginosa AR-0232): ≥ 3 log10; half-life at 1 µM (Microsomal stability; human, liver microsomes, read-out: Microsome Stability t1/2): > 1 h; half-life at 1 µM (Microsomal stability; human and rat liver microsomes, read-out: Microsomal stability half-life): > 1 h
